Results published in US10093683B2, “Factor XIa inhibitors” (Merck Sharp & Dohme Corp., priority 2014, dated 2018).
Like-named read-outs stand apart in the source and are kept apart here.

Legend:
human Factor XIa = human Factor XIa (Homo sapiens (Human), UniProt P03951); experiment: Factor XIa Assay; format: biochemical; details: read-out: FXIa Ki
In short: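 Purified human FXIa (40 pM final) hydrolysing fluorogenic Z-Gly-Pro-Arg-AFC (100 μM) in 50 mM HEPES pH 7.4, 150 mM NaCl, 5 mM CaCl2, 0.1% PEG 8000, at room temperature or 37° C. Initial velocities measured after enzyme–inhibitor equilibration; Ki from Vo/Vi versus [I], assuming competitive inhibition.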

Human plasma kallikrein = Human plasma kallikrein (Homo sapiens (Human), UniProt P03952); experiment: Kallikrein Assay; format: biochemical; details: purified Human plasma kallikrein 0.5 nM, Acetyl-K-P-R-AFC, pH 7.4; Ki from IC50 by Cheng Prusoff
Chain of Human plasma kallikrein (P03952 391-638): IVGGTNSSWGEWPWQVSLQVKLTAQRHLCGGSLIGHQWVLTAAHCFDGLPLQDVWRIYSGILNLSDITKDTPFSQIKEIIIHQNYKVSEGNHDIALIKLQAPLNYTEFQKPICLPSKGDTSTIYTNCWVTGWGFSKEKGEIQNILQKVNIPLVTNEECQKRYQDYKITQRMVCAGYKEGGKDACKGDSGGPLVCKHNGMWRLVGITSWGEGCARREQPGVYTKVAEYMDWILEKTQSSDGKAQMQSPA
Chain of Human plasma kallikrein (P03952 20-390 partner): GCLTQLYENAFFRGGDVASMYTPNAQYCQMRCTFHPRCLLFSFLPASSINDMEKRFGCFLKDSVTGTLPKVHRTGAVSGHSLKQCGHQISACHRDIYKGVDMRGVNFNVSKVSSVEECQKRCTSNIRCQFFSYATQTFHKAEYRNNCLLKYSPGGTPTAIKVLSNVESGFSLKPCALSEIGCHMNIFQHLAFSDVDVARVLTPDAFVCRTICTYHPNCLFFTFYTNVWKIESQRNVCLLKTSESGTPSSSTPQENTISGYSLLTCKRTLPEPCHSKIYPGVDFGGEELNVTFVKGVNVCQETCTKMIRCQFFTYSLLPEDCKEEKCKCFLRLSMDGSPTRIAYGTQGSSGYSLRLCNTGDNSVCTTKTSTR
Procedure: The effectiveness of a compound of the present invention as an inhibitor of Kallikrein can be determined using a relevant purified serine protease, and an appropriate synthetic substrate. The rate of hydrolysis of the chromogenic or fluorogenic substrate by the relevant serine protease was measured both in the absence and presence of compounds of the present invention. Assays were conducted at room temperature or at 37° C. […] A decrease in the rate of fluorescence change in the presence of inhibitor is indicative of enzyme inhibition. Such methods are known to one skilled in the art. The results of this assay are expressed as the inhibitory constant, Ki.
Kallikrein determinations were made in 50 mM HEPES buffer at pH 7.4 containing 150 mM NaCl, 5 mM CaCl2, and 0.1% PEG 8000 (polyethylene glycol; Fisher Scientific). Determinations were made using purified Human plasma kallikrein at a final concentration of 0.5 nM (Enzyme Research Laboratories) and the synthetic substrate, Acetyl-K-P-R-AFC (Sigma #C6608) at a concentration of […].
Times required to achieve equilibration between enzyme and inhibitor were determined in control experiments. The reactions were performed under linear progress curve conditions and fluorescence increase measured at 405 Ex/510 Em nm. […] IC50 was determined by inflection point from a four parameter logistic curve fit. Ki was calculated using the Cheng Prusoff equation, Ki=IC50/(1+([S]/Km)).

[1] = purified human Factor XIa 40 pM, Z-Gly-Pro-Arg-AFC 100 μM, pH 7.4

Chain of human Factor XIa (P03951 388-625): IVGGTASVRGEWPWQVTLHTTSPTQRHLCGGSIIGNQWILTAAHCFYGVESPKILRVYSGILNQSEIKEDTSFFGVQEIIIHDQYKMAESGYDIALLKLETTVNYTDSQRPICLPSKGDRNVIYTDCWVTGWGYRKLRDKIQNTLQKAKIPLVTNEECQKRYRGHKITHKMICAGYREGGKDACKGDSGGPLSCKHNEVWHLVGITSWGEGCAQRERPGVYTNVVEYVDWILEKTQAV
Chain of human Factor XIa (P03951 19-387 partner): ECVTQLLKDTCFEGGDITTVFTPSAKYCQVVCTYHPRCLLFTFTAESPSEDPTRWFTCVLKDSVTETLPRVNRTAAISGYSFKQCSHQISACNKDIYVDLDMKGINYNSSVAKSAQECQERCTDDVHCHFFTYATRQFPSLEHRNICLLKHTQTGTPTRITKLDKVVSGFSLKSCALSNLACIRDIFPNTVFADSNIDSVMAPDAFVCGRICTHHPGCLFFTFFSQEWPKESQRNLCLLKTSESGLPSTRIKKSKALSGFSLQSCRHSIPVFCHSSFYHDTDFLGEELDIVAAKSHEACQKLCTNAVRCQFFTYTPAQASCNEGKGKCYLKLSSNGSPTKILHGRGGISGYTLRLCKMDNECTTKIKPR

Ki (human Factor XIa; [1]) [nM]	Ki (Human plasma kallikrein) [nM]	Ki (human Factor XIa) [nM]	SMILES
15.1	4.65	–	O=C1Nc2ccc(Cl)c(F)c2[C@@]2(CCCN(C(=O)C(Cc3ccccc3)c3ncc(-c4ccc(C(=O)O)s4)[nH]3)C2)O1 (stereo partly drawn) [Example 123, 5-(2-(1-((R)-6-chloro-5-fluoro-2-oxo-1,2-dihydrospiro[benzo[d][1,3]oxazine-4,3′-piperidin]-1′-yl)-1-oxo-3-phenylpropan-2-yl)-1H-imidazol-5-yl)thiophene-2-carboxylic acid]
–	0.96	5.85	O=C1Nc2ccc(Cl)c(F)c2[C@@]2(CCCN(C(=O)[C@H](CC3CC3)NC(=O)c3ccc(-c4ncc[nH]4)s3)C2)O1 [Example 237]
40.4	17.6	–	COC(=O)Nc1ccc(C(=O)N[C@@H](CC(=O)NCC2CC2)C(=O)N2CCC[C@@]3(C2)OC(=O)Nc2ccc(Cl)cc23)cc1 [Example 99, methyl (4-(((S)-1-((R)-6-chloro-2-oxo-1,2-dihydrospiro[benzo[d][1,3]oxazine-4,3′-piperidin]-1′-yl)-4-((cyclopropylmethyl)amino)-1,4-dioxobutan-2-yl)carbamoyl)phenyl)carbamate]
36.4	10.3	–	COC(=O)Nc1ccc(C(=O)N[C@@H](CC(=O)N2CC[C@@H](OC)C2)C(=O)N2CCC[C@@]3(C2)OC(=O)Nc2ccc(Cl)cc23)cc1 [Example 101, methyl (4-(((S)-1-((R)-6-chloro-2-oxo-1,2-dihydrospiro[benzo[d][1,3]oxazine-4,3′-piperidin]-1′-yl)-4-((R)-3-methoxypyrrolidin-1-yl)-1,4-dioxobutan-2-yl)carbamoyl)phenyl)carbamate]
3.59	1.81	–	COC(=O)Nc1ccc(C(=O)N[C@@H](CC(=O)N2CC[C@H]2CO)C(=O)N2CCC[C@@]3(C2)OC(=O)Nc2ccc(Cl)cc23)cc1 [Example 95, methyl (4-(((S)-1-((R)-6-chloro-2-oxo-1,2-dihydrospiro[benzo[d][1,3]oxazine-4,3′-piperidin]-1′-yl)-4-((S)-2-(hydroxymethyl)azetidin-1-yl)-1,4-dioxobutan-2-yl)carbamoyl)phenyl)carbamate]
41.5	5.4	–	COC(=O)Nc1ccc(C(=O)N[C@@H](CC2CCOCC2)C(=O)N2CCC[C@@]3(C2)OC(=O)Nc2ccc(Cl)cc23)cc1 [Example 65, methyl (4-(((S)-1-((R)-6-chloro-2-oxo-1,2-dihydrospiro[benzo[d][1,3]oxazine-4,3′-piperidin]-1′-yl)-1-oxo-3-(tetrahydro-2H-pyran-4-yl)propan-2-yl)carbamoyl)phenyl)carbamate]
12.8	9.78	–	COC(=O)Nc1ccc(C(=O)N[C@@H](Cc2ccccc2)C(=O)N2CCC[C@@]3(C2)OC(=O)Nc2ccc(F)cc23)cc1 [Example 8a, methyl (4-(((S)-1-((R)-6-fluoro-2-oxo-1,2-dihydrospiro[benzo[d][1,3]oxazine-4,3′-piperidin]-1′-yl)-1-oxo-3-phenylpropan-2-yl)carbamoyl)phenyl)carbamate]
–	0.54	10.4	O=C1Nc2ccc(Cl)c(F)c2[C@@]2(CCCN(C(=O)[C@H](CC3CC3)NC(=O)c3ccc4[nH]c(=O)[nH]c4c3)C2)O1 [Example 213]
–	50.7	18.7	Nc1nc2ccc(C(=O)N[C@@H](Cc3ccccc3)C(=O)N3CCC4(C3)OC(=O)Nc3ccc(Cl)cc34)cc2s1 (stereo partly shown) [Example 181]
3.65	11	–	COC(=O)Nc1ccc(C(=O)N[C@@H](CC(=O)N2CCCCC2)C(=O)N2CC[C@@]3(C2)OC(=O)Nc2ccc(Cl)cc23)cc1 [Example 87, methyl (4-(((S)-1-((R)-6-chloro-2-oxo-1,2-dihydrospiro[benzo[d][1,3]oxazine-4,3′-pyrrolidin]-1′-yl)-1,4-dioxo-4-(piperidin-1-yl)butan-2-yl)carbamoyl)phenyl)carbamate]
–	0.29	0.7	O=C1Nc2ccc(Cl)c(F)c2[C@@]2(CCCN(C(=O)[C@H](Cc3ccc(F)cc3)NC(=O)c3cc(F)c(C(=O)C(=O)O)s3)C2)O1 [Example 267, 2-(5-(((S)-1-((R)-6-chloro-5-fluoro-2-oxo-1,2-dihydrospiro[benzo[d][1,3]oxazine-4,3′-piperidin]-1′-yl)-3-(4-fluorophenyl)-1-oxopropan-2-yl)carbamoyl)-3-fluorothiophen-2-yl)-2-oxoacetic acid]
–	1.22	3.82	Nc1n[nH]c2cc(C(=O)N[C@@H](CC(=O)N3CCC3)C(=O)N3CCC[C@@]4(C3)OC(=O)Nc3ccc(Cl)cc34)ccc12 [Example 266]
51.1	15.3	–	COC(=O)Nc1ccc(C(=O)N[C@@H](CC(=O)N2CC(OC)C2)C(=O)N2CCC[C@@]3(C2)OC(=O)Nc2ccc(Cl)cc23)cc1 [Example 97, methyl (4-(((S)-1-((R)-6-chloro-2-oxo-1,2-dihydrospiro[benzo[d][1,3]oxazine-4,3′-piperidin]-1′-yl)-4-(3-methoxyazetidin-1-yl)-1,4-dioxobutan-2-yl)carbamoyl)phenyl)carbamate]
9.98	14.5	–	COC(=O)Nc1ccc(C(=O)N[C@@H](Cc2ccc(-c3cc[nH]c3)cc2)C(=O)N2CC[C@@]3(C2)OC(=O)Nc2ccc(Cl)cc23)cc1 [Example 79, methyl (4-(((S)-3-(4-(1H-pyrrol-3-yl)phenyl)-1-((R)-6-chloro-2-oxo-1,2-dihydrospiro[benzo[d][1,3]oxazine-4,3′-pyrrolidin]-1′-yl)-1-oxopropan-2-yl)carbamoyl)phenyl)carbamate]
5.64	1.73	–	COC(=O)Nc1ccc(C(=O)N[C@@H](CC2CC2)C(=O)N2CCC[C@@]3(C2)OC(=O)Nc2ccc(Cl)c(F)c23)cc1 [Example 63, methyl (4-(((S)-1-((R)-6-chloro-5-fluoro-2-oxo-1,2-dihydrospiro[benzo[d][1,3]oxazine-4,3′-piperidin]-1′-yl)-3-cyclopropyl-1-oxopropan-2-yl)carbamoyl)phenyl)carbamate]
–	51.3	17.6	CNC(=O)Nc1ccc(C(=O)N[C@@H](Cc2ccccc2)C(=O)N2CCC3(C2)OC(=O)Nc2ccc(Cl)cc23)cc1 (stereo partly drawn) [Example 189, N-((2S)-1-(6-chloro-2-oxo-1,2-dihydrospiro[benzo[d][1,3]oxazine-4,3′-pyrrolidin]-1′-yl)-1-oxo-3-phenylpropan-2-yl)-4-(3-methylureido)benzamide]
–	7.72	5000	Cc1ncc(C(=O)N[C@@H](Cc2ccccc2)C(=O)N2CCC3(C2)OC(=O)Nc2ccc(Cl)cc23)cn1 (stereo partly shown) [Example 144]
–	130	77.9	Nc1cc(C(=O)N[C@@H](Cc2ccccc2)C(=O)N2CCC3(C2)OC(=O)Nc2ccc(Cl)cc23)cc2[nH]cnc12 (stereo partly shown) [Example 260]
–	27.5	14.6	O=C1CSc2cc(C(=O)N[C@@H](Cc3ccccc3)C(=O)N3CCC4(C3)OC(=O)Nc3ccc(Cl)cc34)ccc2N1 (stereo partly shown) [Example 165]
15	5.28	–	COC(=O)Nc1ccc(C(=O)N[C@@H](CC(F)F)C(=O)N2CCC[C@@]3(C2)OC(=O)Nc2ccc(Cl)c(F)c23)cc1 [Example 104, methyl (4-(((S)-1-((R)-6-chloro-5-fluoro-2-oxo-1,2-dihydrospiro[benzo[d][1,3]oxazine-4,3′-piperidin]-1′-yl)-4,4-difluoro-1-oxobutan-2-yl)carbamoyl)phenyl)carbamate]
39.9	19.7	–	COC(=O)Nc1ccc(C(=O)N[C@@H](CC(=O)N2CC(O)(C3CC3)C2)C(=O)N2CCC[C@@]3(C2)OC(=O)Nc2ccc(Cl)cc23)cc1 [Example 100, methyl (4-(((S)-1-((R)-6-chloro-2-oxo-1,2-dihydrospiro[benzo[d][1,3]oxazine-4,3′-piperidin]-1′-yl)-4-(3-cyclopropyl-3-hydroxyazetidin-1-yl)-1,4-dioxobutan-2-yl)carbamoyl)phenyl)carbamate]
2.65	31.1	–	COC(=O)Nc1ccc(C(=O)N[C@@H](Cc2ccc(-c3cnn(C)c3)cc2)C(=O)N2CC[C@@]3(C2)OC(=O)Nc2ccc(Cl)cc23)cc1 [Example 83, methyl (4-(((S)-1-((R)-6-chloro-2-oxo-1,2-dihydrospiro[benzo[d][1,3]oxazine-4,3′-pyrrolidin]-1′-yl)-3-(4-(1-methyl-1H-pyrazol-4-yl)phenyl)-1-oxopropan-2-yl)carbamoyl)phenyl)carbamate]

SMILES	Ki (human Factor XIa; [1]) [nM]	Ki (Human plasma kallikrein) [nM]	Ki (human Factor XIa) [nM]
COC(=O)Nc1n[nH]c2cc(C(=O)N[C@@H](Cc3ccccc3)C(=O)N3CC[C@@]4(C3)OC(=O)Nc3ccc(Cl)cc34)ccc12 [Example 227, methyl (6-(((S)-1-((R)-6-chloro-2-oxo-1,2-dihydrospiro[benzo[d][1,3]oxazine-4,3′-pyrrolidin]-1′-yl)-1-oxo-3-phenylpropan-2-yl)carbamoyl)-1H-indazol-3-yl)carbamate]	–	5	9
